Measurements taken from patent US4590189A, “Condensed pyrrolinone derivatives, their production and use” (Takeda Chemical Industries, Ltd., priority 1982, dated 1986).

Target: benzodiazepine receptor
Assay: Specific benzodiazepine receptor binding: displacement of [^3 H] diazepam in crude mitochondrial fractions of rat cerebral cortex
Design: species or system rat (male SD strain)
Settings: [^3 H] diazepam 2 nM, pH 7.4, 4° C., 20 minutes; read-out: IC50, effect on specific binding of [^3 H] diazepam
Protocol: The pharmacological properties of the compounds (I) of this invention were investigated by determining the substituting power thereof for radioactive diazepam from a benzodiazepine receptor.
Specific benzodiazepine receptor binding was carried out according to the method of C. Braestrup and R. F. Squiras (European J. Pharmacol., Vol. 48, 263-270, 1978). Thus, crude mitochondrial fractions obtained from the cerebral cortex of male SD strain rats 9 to 10 weeks of age were suspended in 50 mM Tris-HCl buffer (pH 7.4) and incubated with one of a series of concentrations of the test compound and [^3 H] diazepam (final concentration 2 nM) at 4° C. for 20 minutes. Then, the suspension was filtered through a Whatman GF/B glass fiber filter and the radioactivity of [^3 H] diazepam on the filter was measured by the liquid scintillation method. The concentration of the test drug which caused a 50% inhibition of [^3 H] diazepam specific binding was taken as the IC50 value.

## O=C(CC1c2ccccc2C(=O)N1c1ccc(Cl)cc1)N1CCCCC1 (stereo not drawn)
  IC50: 8.86 nM

## CN(Cc1ccccc1)C(=O)CC1c2ccccc2C(=O)N1c1ccccc1 (stereo not drawn)
  IC50: 19.5 nM

## COc1ccc(N2C(=O)c3ccc(Cl)cc3C2CC(=O)N2CCN(C)CC2)cc1 (stereo not drawn)
  IC50: 1.99 nM

## COc1ccc(N2C(=O)c3ccc(Cl)cc3C2CC(=O)N2CCCCC2)cc1 (stereo not drawn)
  IC50: 0.794 nM

## COc1ccc(N2C(=O)c3ccccc3C2CC(=O)N2CCCCC2)cc1 (stereo not drawn)
  IC50: 4.46 nM

## O=C(CC1c2ccccc2C(=O)N1c1ccc2ccc(Cl)nc2n1)N1CCCCC1 (stereo not drawn)
  IC50: 0.645 nM

## COc1ccc(N2C(=O)c3ccc(N)cc3C2CC(=O)N2CCCCC2)cc1 (stereo not drawn)
  IC50: 3.8 nM

## COc1ccc(N2C(=O)c3ccccc3C2CC(=O)N2CCSC2)cc1 (stereo not drawn)
  IC50: 4.9 nM

## O=C(CC1C2=C(SCCS2)C(=O)N1c1ccc(Cl)cc1)N1CCCCC1 (stereo not drawn)
  IC50: 9.55 nM

## O=C(CC1C2=C(SCCS2)C(=O)N1c1ccc(Cl)cc1)N1CCCCCC1 (stereo not drawn)
  IC50: 5.75 nM

## COc1ccc(N2C(=O)C3=C(SCCS3)C2CC(=O)N2CCCCC2)cc1 (stereo not drawn)
  IC50: 1.05 nM

## O=C(CC1C2=C(SCCS2)C(=O)N1c1ccccc1)N1CCCCC1 (stereo not drawn)
  IC50: 7.58 nM
